Laboratory results as given in the NIST ThermoML archive (doi:10.1021/je050202g).
± gives the expanded uncertainty stated by the source.

How the values were obtained:
[1] = wn = mass fraction of the nth substance listed; conditions: Wilhelmy Plate method
[2] = cn = amount concentration of the nth substance listed, in mol/dm3; conditions: 101.3 kPa, Liquid; for viscosity: Capillary tube (Ostwald / Ubbelohde) method
[3] = Wilhelmy Plate method

`C1CNCCN1` [piperazine] + O showed a surface tension liquid-gas ([1]; 293.15 K, w1 = 0.043) of 71.7 ± 2.1 mN/m, a surface tension liquid-gas ([1]; 293.15 K, w1 = 0.086) of 70.1 ± 2 mN/m and a surface tension liquid-gas ([1]; 293.15 K, w1 = 0.129) of 69.3 ± 1.9 mN/m. For the same compound, the surface tension liquid-gas ([1]; 313.15 K, w1 = 0.043) was 68.5 ± 2 mN/m, the surface tension liquid-gas ([1]; 313.15 K, w1 = 0.086) was 67.8 ± 1.9 mN/m and the surface tension liquid-gas ([1]; 313.15 K, w1 = 0.129) was 67.6 ± 1.9 mN/m. For the same compound, the viscosity ([2]; 293.15 K, c1 = 0.623) was 1.26 ± 0.04 mPa·s, the viscosity ([2]; 293.15 K, c1 = 1.006) was 1.52 ± 0.05 mPa·s and the viscosity ([2]; 293.15 K, c1 = 1.49) was 1.87 ± 0.06 mPa·s. It also gave a mass density ([2]; 293.15 K, c1 = 0.623) of 1000.46 ± 2.5 kg/m3, a mass density ([2]; 293.15 K, c1 = 1.006) of 1002.49 ± 2.5 kg/m3 and a mass density ([2]; 293.15 K, c1 = 1.49) of 1005.4 ± 2.4 kg/m3. It also gave a viscosity ([2]; 298.15 K, c1 = 0.623) of 1.11 ± 0.04 mPa·s, a viscosity ([2]; 298.15 K, c1 = 1.006) of 1.31 ± 0.04 mPa·s and a viscosity ([2]; 298.15 K, c1 = 1.49) of 1.62 ± 0.05 mPa·s. It also gave a viscosity ([2]; 298.15 K, c1 = 1.686) of 1.8 ± 0.06 mPa·s, a mass density ([2]; 298.15 K, c1 = 0.623) of 999.37 ± 2.5 kg/m3 and a mass density ([2]; 298.15 K, c1 = 1.006) of 1001.3 ± 2.5 kg/m3. The mass density ([2]; 298.15 K, c1 = 1.49) was 1004.11 ± 2.4 kg/m3, the mass density ([2]; 298.15 K, c1 = 1.686) was 1005.39 ± 2.4 kg/m3 and the viscosity ([2]; 303.15 K, c1 = 0.623) was 0.98 ± 0.03 mPa·s. The viscosity ([2]; 303.15 K, c1 = 1.006) was 1.15 ± 0.04 mPa·s, the viscosity ([2]; 303.15 K, c1 = 1.49) was 1.4 ± 0.04 mPa·s and the viscosity ([2]; 303.15 K, c1 = 1.686) was 1.56 ± 0.05 mPa·s. For the same compound, the mass density ([2]; 303.15 K, c1 = 0.623) was 997.94 ± 2.5 kg/m3, the mass density ([2]; 303.15 K, c1 = 1.006) was 999.79 ± 2.5 kg/m3 and the mass density ([2]; 303.15 K, c1 = 1.49) was 1002.47 ± 2.4 kg/m3. For the same compound, the mass density ([2]; 303.15 K, c1 = 1.686) was 1003.66 ± 2.4 kg/m3, the viscosity ([2]; 313.15 K, c1 = 0.623) was 0.79 ± 0.03 mPa·s and the viscosity ([2]; 313.15 K, c1 = 1.006) was 0.92 ± 0.03 mPa·s. It also gave a viscosity ([2]; 313.15 K, c1 = 1.49) of 1.09 ± 0.03 mPa·s, a viscosity ([2]; 313.15 K, c1 = 1.686) of 1.2 ± 0.04 mPa·s and a mass density ([2]; 313.15 K, c1 = 0.623) of 994.25 ± 2.5 kg/m3. The mass density ([2]; 313.15 K, c1 = 1.006) was 996.03 ± 2.5 kg/m3, the mass density ([2]; 313.15 K, c1 = 1.49) was 998.49 ± 2.4 kg/m3 and the mass density ([2]; 313.15 K, c1 = 1.686) was 999.49 ± 2.4 kg/m3. For the same compound, the viscosity ([2]; 323.15 K, c1 = 0.623) was 0.65 ± 0.02 mPa·s, the viscosity ([2]; 323.15 K, c1 = 1.006) was 0.75 ± 0.02 mPa·s and the viscosity ([2]; 323.15 K, c1 = 1.49) was 0.88 ± 0.03 mPa·s. The viscosity ([2]; 323.15 K, c1 = 1.686) was 0.96 ± 0.03 mPa·s, the mass density ([2]; 323.15 K, c1 = 0.623) was 989.76 ± 2.5 kg/m3 and the mass density ([2]; 323.15 K, c1 = 1.006) was 991.53 ± 2.5 kg/m3. The mass density ([2]; 323.15 K, c1 = 1.49) was 993.86 ± 2.4 kg/m3 and the mass density ([2]; 323.15 K, c1 = 1.686) was 994.74 ± 2.4 kg/m3.

Compound `O` [water] has a surface tension liquid-gas ([3]; 293.15 K) of 72.7 ± 2.2 mN/m and a surface tension liquid-gas ([3]; 313.15 K) of 69.8 ± 2.1 mN/m.

`O` [water] + C1CNCCN1 gave a surface tension liquid-gas ([1]; 293.15 K, w2 = 0) of 72.7 ± 2.2 mN/m and a surface tension liquid-gas ([1]; 313.15 K, w2 = 0) of 69.8 ± 2.1 mN/m.
